The numbers were not newly measured in patent US20020137692A1, “Novel compositions of potassium channel openers and protein kinase C inhibitors and use thereof” (Pharmacia AB, priority 2001, published 2002), which cites them from elsewhere.

The subject of data set [1] is hair growth.
The test system of data set [2] is hair keratinocytes.
Data set [3] has as its system C3H mouse.

Regarding `CCCCCCCCCCCCCCCC(=O)OC(CC(=O)O)C[N+](C)(C)C.[Cl-]` (racemic) [palmitoyl-DL-carnitine chloride], the “anagen induction in vivo” value in data set [1] was “marked anagen induction”.
Consider `Oc1cc(O)c2c(c1)O[C@H](c1ccc(O)c(O)c1)[C@@H](O)[C@@H]2c1c(O)cc(O)c2c1O[C@H](c1ccc(O)c(O)c1)[C@@H](O)C2` [Solution B3, procyanidin B3], for which the “stimulation of hair keratinocytes” value in data set [2] is reported as “stimulation of hair keratinocytes”. In data set [3], the hair growth stimulation entry is “hair growth stimulation”.
Turning to `CCCCCCCCCCCCCCCCOP(=O)([O-])OCC[N+](C)(C)C` [hexadecylphosphocholine], in data set [1], the “anagen induction in vivo” value was “marked anagen induction”.
On to `Oc1cc(O)c2c(c1)O[C@H](c1ccc(O)c(O)c1)[C@H](O)[C@H]2c1c(O)cc(O)c2c1O[C@H](c1ccc(O)c(O)c1)[C@@H](O)C2` [procyanidin B1], for which the “stimulation of hair keratinocytes” value in data set [2] was “stimulation of hair keratinocytes”. Moreover, the hair growth stimulation result in data set [3] is “hair growth stimulation”.
As for `Oc1cc(O)c2c(c1)O[C@H](c1ccc(O)c(O)c1)[C@H](O)[C@H]2c1c(O)cc(O)c2c1O[C@H](c1ccc(O)c(O)c1)[C@H](O)C2` [procyanidin B2], the “stimulation of hair keratinocytes” value in data set [2] was “stimulation of hair keratinocytes”. The hair growth stimulation result in data set [3] is recorded as “hair growth stimulation”. For the same compound, the “anagen induction in vivo” value in data set [1] was “marked anagen induction”.
Turning to `Oc1cc(O)c2c(c1)O[C@H](c1ccc(O)c(O)c1)[C@H](O)[C@H]2c1c(O)cc(O)c2c1O[C@H](c1ccc(O)c(O)c1)[C@H](O)[C@H]2c1c(O)cc(O)c2c1O[C@H](c1ccc(O)c(O)c1)[C@H](O)C2` [procyanidin C1], in data set [2], the “stimulation of hair keratinocytes” value is “stimulation of hair keratinocytes”. For the same compound, the hair growth stimulation result in data set [3] is on record as “hair growth stimulation”. Also, the “anagen induction in vivo” value in data set [1] is given as “marked anagen induction”.
On to calphostin C, for which the “anagen induction in vivo” value in data set [1] is reported as “marked anagen induction”.
Regarding polymyxin B sulfate, the “anagen induction in vivo” value in data set [1] was “marked anagen induction”.
